In article PMC8454703 (Biochemical Journal, 2021) one finds Kd data, which are given here for one compound.

Experiment in all cases: SPR, protein over lipid vesicles on L1 chip
Common to all, as to assay type: binding
For orientation: In SPR one partner is held on a chip, and binding of the other changes the refractive index at the surface.

Test [1] deals with T1, sTIM-3 (Homo sapiens, UniProt Q8TDQ0, F61A).
T1 sequence (Q8TDQ0 22-202 F61A limits assumed): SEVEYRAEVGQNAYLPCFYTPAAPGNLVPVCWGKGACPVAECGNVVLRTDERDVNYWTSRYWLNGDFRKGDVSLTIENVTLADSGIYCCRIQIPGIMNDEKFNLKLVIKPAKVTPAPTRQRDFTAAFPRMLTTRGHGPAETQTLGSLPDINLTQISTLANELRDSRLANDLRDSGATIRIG

Test [2] has as its target T2, sTIM-4 (Homo sapiens, UniProt Q96H15).
T2 sequence (Q96H15 25-314 limits assumed): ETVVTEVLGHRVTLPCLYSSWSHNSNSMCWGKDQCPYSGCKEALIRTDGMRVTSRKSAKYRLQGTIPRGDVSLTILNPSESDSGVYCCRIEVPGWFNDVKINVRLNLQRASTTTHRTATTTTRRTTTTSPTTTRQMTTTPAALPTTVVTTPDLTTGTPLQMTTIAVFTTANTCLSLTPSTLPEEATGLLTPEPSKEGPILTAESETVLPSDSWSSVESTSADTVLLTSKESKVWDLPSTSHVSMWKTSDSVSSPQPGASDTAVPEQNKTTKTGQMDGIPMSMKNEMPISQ

For test [3], the target named is T3, sTIM-3 (Homo sapiens, UniProt Q8TDQ0).
T3 sequence (Q8TDQ0 22-202 limits assumed): T1 sequence (Q8TDQ0 22-202 F61A limits assumed) with A40F

The target of test [4] is T4, sTIM-3 (Homo sapiens, UniProt Q8TDQ0, I117A/M118A).
T4 sequence (Q8TDQ0 22-202 I117A/M118A limits assumed): T1 sequence (Q8TDQ0 22-202 F61A limits assumed) with A40F, I96A, M97A

In test [5] the target is T5, sTIM-1 (Homo sapiens, UniProt Q96D42).
T5 sequence (Q96D42 21-295 limits assumed): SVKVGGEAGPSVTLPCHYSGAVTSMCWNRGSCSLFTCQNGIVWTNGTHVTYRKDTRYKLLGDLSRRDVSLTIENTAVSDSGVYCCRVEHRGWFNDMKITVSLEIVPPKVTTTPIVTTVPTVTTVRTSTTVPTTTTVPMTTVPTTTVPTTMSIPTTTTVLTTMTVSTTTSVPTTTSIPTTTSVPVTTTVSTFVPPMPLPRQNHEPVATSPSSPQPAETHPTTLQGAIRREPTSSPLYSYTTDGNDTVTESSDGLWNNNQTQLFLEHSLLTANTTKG

Positions count from the first letter of the chain named. Some results are limits rather than exact numbers.

For `CCCCCCCC/C=C\CCCCCCCC(=O)OC[C@H](COP(=O)(O)OC[C@H](N)C(=O)O)OC(=O)CCCCCCC/C=C\CCCCCCCC` [DOPS], the Kd – broadly, the concentration at which binding is half-saturated – in test [1] is above 200 µM; in test [2], 0.77 ± 0.32 µM; in test [3], 9.7 ± 4.2 µM; in test [4] it was above 200 µM; in test [5] it was 0.35 ± 0.05 µM.
